In US9663439B2, “Aildenafil citrate crystal form O, preparation method and use thereof” (priority 2010, dated 2017):
Where a name gives a salt, the structure may show the parent alone.

Tests used:
[1] = Influencing factor test (high temperature, high humidity, illumination); assay type: physicochemical
castrated mice = assay: Determination for sexual function of castrated mice; assay type: in vivo, Kunming strain mouse; conditions: 15 mg/kg^−1, ig, 60 min after feeding the drug
Source text: Pharmacodynamic study: determination for sexual function of castrated mice 60 Kunming strain mouse (feeding 60 mouse with 18 g to 22 g weight in the same period) are randomly divided into 6 groups, each 10 mouse per group, wherein, 5 groups of mouse are implemented with bilateral orchidectomy under ether anesthesia state to have castration treatment, and the rest one group of mouse are only implemented with surgical separation, without removing the testicles, which can be taken as a sham operation control group. Each group of mouse are fed in cage, and are tested after 3 d. The sham operation control group and the model control group are fed with 0.5% CMC, […] crystal form O, the positive control group is fed with 6 mg·kg^−1 of Sildenafil; all are ig delivery modes, and the dose volumes are all 10 ml·kg^−1. Putting the single male mice in the cage 60 min after feeding the drug, and adding one female mice in each cage, recording the time that the male mice firstly catches the female mice since the female mice is put in the cage (namely, the capture incubation period), and recording the back-climbing times of the male mice within 30 min.

[2] = High-temperature test (first line; 60+/−2° C.), 0 month
[3] = High-temperature test (first line; 60+/−2° C.), 0.5 month
[4] = High-temperature test (first line; 60+/−2° C.), 1 month
[5] = High-temperature test (second line so named), 0 month
[6] = High-temperature test (second line so named), 0.5 month
[7] = High-temperature test (second line so named), 1 month
[8] = Illumination test (4500 lx+/−500 lx), 0 month
[9] = Illumination test (4500 lx+/−500 lx), 0.5 month
[10] = Illumination test (4500 lx+/−500 lx), 1 month
[11] = high light (4500 lx+/−500 lx), high temperature (60+/−2° C.), high humidity (RH 92.5%), 0 to 1 month

CCCc1nn(C)c2c(=O)[nH]c(-c3cc(S(=O)(=O)N4C[C@@H](C)N[C@@H](C)C4)ccc3OCC)nc12 [Aildenafil citrate crystal form O]
Appearance [1, 2]: White
Contents (HPLC area normalization method) [1, 2]: 99.96%
Related articles [1, 2]: 0.04%
Appearance [1, 3]: White
Contents (HPLC area normalization method) [1, 3]: 99.96%
Infrared absorption spectrum [1, 3]: Unchanged
PXRD [1, 3]: Unchanged
Related articles [1, 3]: 0.04%
Appearance [1, 4]: White
Contents (HPLC area normalization method) [1, 4]: 99.95%
Infrared absorption spectrum [1, 4]: Unchanged
PXRD [1, 4]: Unchanged
Related articles [1, 4]: 0.04%
Appearance [1, 5]: White
Contents (HPLC area normalization method) [1, 5]: 99.96%
Related articles [1, 5]: 0.04%
Appearance [1, 6]: White
Contents (HPLC area normalization method) [1, 6]: 99.95%
Infrared absorption spectrum [1, 6]: Unchanged
PXRD [1, 6]: Unchanged
Related articles [1, 6]: 0.04%
Appearance [1, 7]: White
Contents (HPLC area normalization method) [1, 7]: 99.96%
Infrared absorption spectrum [1, 7]: Unchanged
PXRD [1, 7]: Unchanged
Related articles [1, 7]: 0.05%
Appearance [1, 8]: White
Contents (HPLC area normalization method) [1, 8]: 99.96%
Related articles [1, 8]: 0.04%
Appearance [1, 9]: White
Contents (HPLC area normalization method) [1, 9]: 99.96%
Infrared absorption spectrum [1, 9]: Unchanged
PXRD [1, 9]: Unchanged
Related articles [1, 9]: 0.04%
Appearance [1, 10]: White
Contents (HPLC area normalization method) [1, 10]: 99.96%
Infrared absorption spectrum [1, 10]: Unchanged
PXRD [1, 10]: Unchanged
Related articles [1, 10]: 0.04%
chemical stability (related articles and contents) [1, 11]: excellent chemical stability
crystal form stability (appearance, PXRD, infrared absorption spectrum) [1, 11]: stable
capture incubation period shortened (castrated mice): 201%
capture times increased (castrated mice; within 30 min): 4.4 times
